In assay [1] the test system is CD70. To be noted: PHA-stimulated T cells, 3 days, oligonucleotide arrays, mean±SEM, 2 independent experiments.
The subject of assay [2] is CD70. Put plainly: Flow cytometric analysis of CD70 expression on drug-treated T cells. To be noted: for CD70 expression on CD4+ T cells: summary statement; for increase of CD70 MFI on CD4+ T cells: 1 μM 5-azaC (n=5), 25 μM PD98059 (n=3), 40 μM U0126 (n=4); for CD70 expression increase on cloned T cell line TT48E: 1 μM 5-azaC or 40 μM U0126 for 3 days, 6 serial experiments; for CD70 expression on PHA-stimulated T cells, treated vs untreated: unfractionated T cells, 3 days, 1 μM 5-azaC, procainamide dose response, 25 μM PD98059, 40 μM U0126 (FIG. 2). The assay is classed as cell-based, human.

The next assay relates to CD70 promoter. The assay is described as follows: Bisulfite sequencing of the CD70 (TNFSF7) promoter in CD4+ T cells. It counts as cell-based, human. To be noted: for methylation of the 10 CG pairs between −515 and −423 of the TNFSF7 promoter: CD4+ T cells stimulated with anti-CD3 and anti-CD28, vs stimulated untreated controls (FIG. 13, 14). The procedure:
(§1) In other studies, T cells were isolated by negative selection using magnetic beads and instructions provided by the manufacturer (Pan T cell Isolation Kit, Miltenyi), and the CD4+ or CD8+ subset was similarly isolated by magnetic cell sorting. Jurkat cells (E6-1) were cultured as previously described (See, e.g., Cornacchia et al., J Immunol 140:2197 (1998)). Purified human CD4+ T cells were first stimulated with plate bound anti-CD3 and soluble anti-CD28. Briefly, 24 well plates were coated with 300 μl of anti-CD3 (10 μg/ml in PBS—SouthernBiotech) 18 hours 4° C., washed, then 2×10^6 purified T cells were added to the wells in 2 ml RPMI 1640/10% FCS containing 2 μg/ml anti-CD28 (SouthernBiotech).
Bisulfite sequencing. The putative CD70 promoter was identified using the published CD70 cDNA sequence and Tfsitescan software. Deoxycytosine (dC) and deoxymethylcytosine (d^mC) bases in the gene promoter and 5′ flanking sequences were identified by bisulfite treatment of purified DNA followed by nested PCR amplification of 3 sequential fragments to span the entire region. The primers were designed to avoid CG pairs and to account for the conversion of dC to dU by the bisulfite. EcoRI sites were added to the forward primers, and XbaI to the reverse, to facilitate cloning. The amplified fragments were then cloned into PBS+, and 5 clones sequenced for each fragment. The primers used were: […]
The effect of lupus and DNA methylation inhibitors on a regulatory element in the CD70 promoter was examined. DNA was isolated from the CD4+ T cells of 7 healthy individuals or 6 lupus patients, bisulfite treated, the region from −466-−515, containing 6 CG pairs was amplified by PCR, and 5 fragments sequenced from each individual. The average methylation status of the 6 CG pairs for healthy versus lupus individuals is shown (FIG. 8, NI and Lupus, respectively). CD4+ T cells from 5 individuals were also stimulated with PHA, treated with the irreversible DNA methyltransferase inhibitor 5-azacytidine (5-azaC), and the methylation status of the 6 CG pairs similarly analyzed from the 25 fragments sequenced (FIG. 8, 5-azaC). […] Results are presented as the mean±SEM of the average methylation of the 6 CG pairs, measured from the 10-35 determinations/group.
The effects of the DNA methylation inhibitors on the methylation status of this region were then compared. […] Again, 5 cloned fragments were sequenced from each control, for a total of 35 determinations per CG pair. […] FIG. 14 compares the average methylation for the 10 CG pairs (−515 to −423) in the T cells treated with DNA methylation inhibitors relative to stimulated, untreated controls.

Another assay deals with CD70 mRNA. Put plainly: Real time RT-PCR of CD70 transcripts relative to β-actin in T cells. To be noted: for CD70 mRNA (transcripts) in CD4+ T cells: anti-CD3 + anti-CD28, 3 days, 5 μm 5-azaC, 50 μm Pca, 20 μm Hyd, 40 μm UO126, 25 μm PD98059 (FIG. 9); for expression of CD70 mRNA relative to that of beta-actin: PHA-stimulated T cells, treated vs untreated, real time RT-PCR (FIG. 1B). The assay is classed as cell-based, human. The procedure: Cells and cell culture. Peripheral blood mononuclear cells (PBMCs) were isolated by density-gradient centrifugation. T cells were then isolated by E-rosetting (See, e.g., Golbus et al., Clin Immunol Immunopathol 46, 129 (1988)). […] Where indicated, the cells were cultured in RPMI 1640/10% fetal calf serum (FCS) supplemented with interleukin-2 (IL-2) (See, e.g., Richardson et al., Clin Immunol Immunopathol 55, 368 (1990)), in round-bottomed 5-ml culture tubes (FALCON). Cells were stimulated with 1 μg/ml of PHA (REMEL) for 16 hours, then cultured in 24-well plates at a density of 1×10^6 for an additional 72 hours in the presence of 2-deoxy-5-azaC or 5-azaC (SIGMA ALDRICH), procainamide (SIGMA ALDRICH), hydralazine (SIGMA ALDRICH), or the MEK inhibitors U0126 (PROMEGA) or PD98059 (PROMEGA). In other studies, PHA-stimulated PBMCs were cultured in RPMI 1640/10% FCS and treated with indomethacin, chloroquine, hydrocortisone, and 6-mercaptopurine (6-MP) (all from SIGMA ALDRICH). TT48E, a cloned, CD4+, tetanus toxoid-reactive human T cell line, was cultured as previously described (Cornacchia et al., J Immunol 140, 2197 (1988); Richardson et al., Arthritis Rheum 35, 647 (1992)).
as §1
On the technique in general: Real-time PCR tracks product formation cycle by cycle.

The next assay has as its system B cell IgG production. The assay is described as follows: T cell and B cell costimulation assay, IgG ELISA of supernatants. The assay is classed as cell-based, human. To be noted: autologous B cells; for IgG produced by B cells cultured with drug-treated cloned T cells vs untreated T cells: TT48E treated 3 days, without PWM, P<0.05 (FIG. 4); for IgG secreted by B cells cultured with drug-treated T cells vs untreated T cells: unfractionated PHA-stimulated T cells, PWM, 8 days, P<0.05 (FIG. 3). How it is done: T cell and B cell costimulation assays. E-rosette-purified T cells were stimulated for 16 hours with PHA and then treated with the indicated chemicals for an additional 72 hours as described above. Where indicated, T cell subsets were isolated by negative selection using magnetic beads (Miltenyi). B cells (1-4×10^5) enriched by negative selection using magnetic beads (Miltenyi) and assessed to be 70-85% pure using PE-conjugated anti-human CD21 (PHARMINGEN), were added to washed, drug-treated autologous T cells, at T cell to B cell ratios of 4:1, 2:1, 1:1, 1:2, and 1:4. Where indicated, 0.625 μg/ml of PWM (ALDRICH) was added. The cells were cultured in RPMI 1640/10% FBS/penicillin/streptomycin for 8 days in 96-well roundbottomed plates (Costar) containing a 200 μl total volume (performed in duplicate). Cells were supplemented with 50 μl of medium on day 4. Where indicated, 1 μg/ml of anti-CD70 monoclonal antibody (HNE51) (DAKO) was added to the cultures. TT48E cells were similarly stimulated with PHA (1 μg/ml) for 18 hours, treated with the indicated drugs for 3 days, then similarly cultured with autologous B cells for 8 days. Where indicated, the TT48E cells were pretreated with 1 μg/ml of anti-CD70 for 30 minutes at 4° C., then washed and added to the B cells, according to protocols described by others (See, e.g., Kobata et al., Proc Natl Acad Sci USA 92, 11249 (1995)).
IgG enzyme-linked immunosorbent assays (ELISAs). IgG was measured in the supernatants of the T cell-B cell cultures (See, e.g., Richardson et al., Clin Immunol Immunopathol 55, 368 (1990)). Briefly, 96-well flatbottomed polystyrene plates (Costar) were coated with 1 μg/ml of goat anti-human IgG (Southern Biotech) and washed. Unreacted combining sites were sealed with 3% bovine serum albumin (BSA) in phosphate buffered saline (PBS) by incubation at 4° C. for 16 hours. Pooled supernatants from duplicate wells were diluted 1:5 in PBS/1% BSA, and 50 μl was added to the wells. Serial dilutions of purified human IgG (Sigma) were used for quantitation. Following incubation and washing, goat anti-human IgG conjugated with horseradish peroxidase (Southern Biotech) was added, and cells were incubated for 2 hours at room temperature. The wells were washed 3 times with PBS/0.1% Tween 20, and color was developed using Sigma Fast tablets. The plates were read at 405 nm using a SpectraMax spectrophotometer (Molecular Devices). All determinations were performed in quadruplicate.
Since CD70 participates in T cell-dependent B cell stimulation (See e.g., Kobata et al., Proc Natl Acad Sci USA 92, 11249 (1995)), the effects of DNA methylation inhibitors on CD70-dependent B cell help were examined. […] Eight days later, total IgG in the supernatants was measured by ELISA. […]

Assay [3] has as its system CD70. Put plainly: CD70 expression on CD4+ cells of PBMCs cultured with medications used to treat lupus, flow cytometry. It counts as cell-based, human. To be noted: PBMCs with or without PHA, 24 hours, graded concentrations (1-100 μM).

Some results are limits rather than exact numbers.

On to `Nc1ncn([C@H]2C[C@H](O)[C@@H](CO)O2)c(=O)n1` [2-deoxy-5-azaC], for which the “CD70 expression increase in treated cells relative to untreated controls” value with CD70 [1] is on record as 2.6±0.6 fold.
In the case of `Nc1ncn([C@@H]2O[C@H](CO)[C@@H](O)[C@H]2O)c(=O)n1` [5-azaC, 5-azacytidine], in the assay with CD70 [2], the “CD70 expression on CD4+ T cells” value is recorded as “increased CD70 expression”; the “increase of CD70 MFI on CD4+ T cells” value was 1.53±0.45 fold; the “CD70 expression increase on cloned T cell line TT48E” value was 1.69±0.33 fold; the “CD70 expression on PHA-stimulated T cells, treated vs untreated” value (“CD70 expression … vs untreated” below) is given as “small increase”. Further, the “concentration producing the greatest effect on CD70 expression” value in the assay with CD70 [2] (range of 5-azaC concentrations, PHA-stimulated T cells, n=5 experiments (FIG. 2B)) was found to be 1 µM. For the same molecule, in the assay on CD70 promoter, the “methylation of the 10 CG pairs between −515 and −423 of the TNFSF7 promoter” value (from here on “methylation … of the TNFSF7 promoter”) was “hypomethylated compared to controls”. In addition, in the assay on CD70 mRNA, the “CD70 mRNA (transcripts) in CD4+ T cells” value is reported as “increased steady state levels of CD70 mRNA” and the “expression of CD70 mRNA relative to that of beta-actin” value is recorded as “increased the expression of CD70 mRNA”. For the same molecule, in the assay on B cell IgG production, the “IgG produced by B cells cultured with drug-treated cloned T cells vs untreated T cells” value is on record as “greater amounts of IgG” and the “IgG secreted by B cells cultured with drug-treated T cells vs untreated T cells” value is recorded as “greater amounts of IgG”. Further, the “CD70 expression increase in treated cells relative to untreated controls” value with CD70 [1] was greater than 2 fold.
Take `COc1cccc(-c2cc(=O)c3ccccc3o2)c1N` [PD98059]: in the assay with CD70 [2], the “CD70 expression on CD4+ T cells” value was “increased CD70 expression”; the “increase of CD70 MFI on CD4+ T cells” value is 1.63±0.43 fold; the “CD70 expression … vs untreated” value is “increase in CD70 expression”. Moreover, in the assay with CD70 promoter, the “methylation … of the TNFSF7 promoter” value is listed as “appears to demethylate”. The “CD70 mRNA (transcripts) in CD4+ T cells” value in the assay with CD70 mRNA is “increased steady state levels of CD70 mRNA”.
Take `N#CC(=C(/N)Sc1ccccc1N)/C(C#N)=C(\N)Sc1ccccc1N` [U0126]: in the assay with CD70 [2], the “CD70 expression on CD4+ T cells” value was “increased CD70 expression”; the “increase of CD70 MFI on CD4+ T cells” value is 3.20±0.44 fold; the “CD70 expression increase on cloned T cell line TT48E” value is on record as 1.87±0.37 fold; the “CD70 expression … vs untreated” value is recorded as “increase in CD70 expression”. Moreover, in the assay on CD70 [2] (T cells treated with 40 μM U0126, P=0.085), the “CD70 MFI increase in T cells treated with U0126 (FIG. 2I)” value was found to be 2.83±0.95 fold. The “methylation … of the TNFSF7 promoter” value in the assay with CD70 promoter is “appears to demethylate”. Also, in the assay on CD70 mRNA, the “CD70 mRNA (transcripts) in CD4+ T cells” value is reported as “increased steady state levels of CD70 mRNA” and the “expression of CD70 mRNA relative to that of beta-actin” value was “increased the expression of CD70 mRNA”. Besides, in the assay with B cell IgG production, the “IgG produced by B cells cultured with drug-treated cloned T cells vs untreated T cells” value was “greater amounts of IgG” and the “IgG secreted by B cells cultured with drug-treated T cells vs untreated T cells” value is reported as “greater amounts of IgG”.
Regarding `CCN(CC)CCNC(=O)c1ccc(N)cc1` [procainamide], in the assay with CD70 [2], the “CD70 expression on CD4+ T cells” value is listed as “increased CD70 expression” and the “CD70 expression … vs untreated” value is “increase in the ratio of the mean fluorescence intensity (MFI) of CD70 expression”. For the same molecule, the “methylation … of the TNFSF7 promoter” value with CD70 promoter is recorded as “appears to demethylate”. Besides, the “methylation of the region from −466-−515 (6 CG pairs) of the CD70 promoter” value in the assay with CD70 promoter (PHA-stimulated CD4+ T cells (FIG. 8)) is given as “demethylate this region”. The “CD70 mRNA (transcripts) in CD4+ T cells” value with CD70 mRNA is “increased steady state levels of CD70 mRNA”.
`C[C@]12CCC(=O)C=C1CC[C@@H]1[C@@H]2[C@@H](O)C[C@@]2(C)[C@H]1CC[C@]2(O)C(=O)CO` [hydrocortisone]: in the assay on CD70 [3], the “CD70 expression on stimulated or unstimulated CD4+ cells” value is recorded as “No increase in CD70 expression”.
Same read-out and setting: with `CCN(CC)CCCC(C)Nc1ccnc2cc(Cl)ccc12` (stereo not drawn) [chloroquine] the entry was “No increase in CD70 expression”; with `Sc1ncnc2nc[nH]c12` [6-MP, 6-mercaptopurine], “No increase in CD70 expression”; with `COc1ccc2c(c1)c(CC(=O)O)c(C)n2C(=O)c1ccc(Cl)cc1` [indomethacin], “No increase in CD70 expression”.

Source of the values: patent publication US7723037B2, “Methods and kits for diagnosing or monitoring autoimmune and chronic inflammatory disease” (The Regents of the University of Michigan, priority 2004, dated 2010).
